Data set [1] has as its system prostate cancer cells (PC-3). As to the kind of experiment: MTS-based cytotoxicity assay, PC-3. Particulars: Homo sapiens, 72 h, 72 h treatment, 0.205–50 μM, mean ± SEM. The format is cell-based, human. The procedure: (§1) In this study, we applied the most extensively used MTS-based assay, which provides a valuable tool for determining cell viability by evaluating metabolic activity. The cytostatic activity of the tested compounds was defined as the half-maximal inhibitory concentration (IC50) causing a 50% decrease in the metabolic activity of the cells. It was determined against breast cancer (MCF-7), fibrosarcoma (HT-1080), and prostate cancer (PC-3) cells.
(§2) The tested compounds were tested against three different human cancer cell lines (breast adenocarcinoma MCF-7 ATCC® HTB-22^TM, fibrosarcoma HT-1080 ATCC® CCL121^TM, and prostate adenocarcinoma PC-3 ATCC® CRL-1435^TM). For the cell viability experiment, cells were seeded in transparent 96-well plates (FALCON no. 353072, Corning, Durham, NC, USA) in MEM (Gibco no. 31095-029, UK) supplemented with 10% heat-inactivated FBS (Gibco no. 10500-064, UK). The cell seeding density was as follows: MCF-7 12,000 cells/well, HT-1080 7000 cells/well, PC-3 10,000 cells/well. Cells were seeded one day before treatment with the tested compounds and cultured overnight. The confluence on the treatment day was around 30%. The tested compounds were dissolved in DMSO as 10 mM stock solutions and kept under −4 °C. On the day of experimentation, the medium was removed and replaced with a fresh one that contained the following: (1) dimethylsulfoxide (DMSO < 0.1%, vehicle control (Veh)); (2) increasing the concentration of compounds (0.205–50 μM, performed as a 2.5-fold serial dilution for dose–response analysis). Treatment with compounds was carried out for 72 h. Each treatment was replicated three times in a single experiment, with three separate experiments conducted. (n = 9). When significant variability in the results occurred, an additional test was performed on certain compounds. During the incubation, the cells were examined under an inverted microscope to check if the compounds had not precipitated in the culture medium. The inhibitory effect of compounds on the cell was examined using an MTS-based assay (Promega, Madison, WI, USA) following the manufacturer’s protocol. The absorbance was measured at 490 nm using Tecan Spark’s multimode plate reader (Tecan, Männedorf, Switzerland). A reference wavelength of 630 nm was used to subtract the background. IC50 values were calculated by fitting a non-linear regression to a sigmoidal dose–response curve in GraphPad Prism version 8.0.1.
On the technique in general: Formazan colour is commonly taken as a measure of viable cells.

The subject of another data set is PC-3 cell line. As to the kind of experiment: IncuCyte caspase-3/7 apoptosis induction assay. Particulars: PC-3 cells, tested at 1 µM and 10 µM, monitored for 28 h; staurosporine 1 µM positive control. The data set is classed as cell-based, human. The procedure:
Apoptosis induction tests were conducted using the IncuCyte system to test cells (PC-3) in an in vitro culture. […] The compounds were tested at 1 µM and 10 µM concentrations, and apoptosis was monitored for 28 h (Figure 6). The incubation time was selected based on the induction of apoptosis in the control cells. Staurosporine (STA) at a concentration of 1 µM was used as the positive control, while the negative control cells were treated with 0.1% DMSO (vehicle control). […].
Apoptosis was monitored in real time using the Incucyte® Caspase-3/7 for […] Dyes (Cat. No. 4776, Sartorius, Ann Arbor, MI, USA). The principle of this test is based on binding a DNA intercalating dye with the activation motif (DEVD) of caspase-3/7, allowing a quantitative analysis of cells to undergo caspase-3/7-mediated apoptosis in real time. For the experiment, PC3 cells were seeded in a black 96-well plate with transparent bottom (cat. no. 165305, ThermoScientific, Waltham, MA, USA) at 10,000 cells/well density and cultured overnight. The next day, the medium was removed, and the cells were treated with the tested compound. […] The IncuCyte S3 imaging system recorded kinetic measures of the number of caspase-3/7 positive cells. Repeat scanning to record phase and fluorescence images were every 2 h, for up to 28 h. […]

The subject of data set [2] is human hepatoma cells (HepG2). Description: Safety study in vitro (MTS viability), HepG2. The format is cell-based. To be noted: 0.205–50 μM, 72 h. The procedure: (§3) In drug development, particular attention should be paid to studying the safety profile of compounds. Promising drug candidates should not cause adverse effects on essential organ systems like the liver, kidney, or healthy cells in general. Systemic toxicity of the compound is the main factor limiting its therapeutic application and efficiency. In our study, a preliminary study on nephrotoxicity and hepatotoxicity was evaluated in human embryonic kidney cells (HEK293, ATCC® CRL1573™) and human hepatoma cells (HepG2, ATCC® HB8065™), respectively. HEK293 is commonly used to evaluate the cytotoxicity of nephrotoxic compounds [42]. HepG2 is a well-established in vitro human cell system to study liver toxicity. We also used healthy human skin fibroblast (HSF) to extend the cytotoxicity profile. All three cell lines were cultured in DMEM (Gibco no. 61965-026, UK) supplemented with 10% FBS (Gibco no. 10500-064, UK). For the experiment, cells were seeded (8 × 10^3 cells/100μL/well) in transparent 96-well plates (FALCON no. 353072, Corning, Durham, […], USA) and cultured overnight. […] DOX was a reference compound that adversely affected the liver, kidney, and healthy cells. Treatment with compounds was carried out for 72 h. Cell viability was examined using an MTS-based CellTiter96® AQueous One Solution Cell Proliferation Assay (Promega, Madison, WI, USA) following the manufacturer’s protocol.

For data set [3], the system named is fibrosarcoma cells (HT-1080). As to the kind of experiment: MTS-based cytotoxicity assay, HT-1080. The format is cell-based, human. To be noted: Homo sapiens, HT-1080, 72 h, 72 h treatment, 0.205–50 μM, mean ± SEM. The procedure:
as §1, §2

Data set [4] deals with human skin fibroblast (HSF). Description: Safety study in vitro (MTS viability), HSF. The format is cell-based. Particulars: 0.205–50 μM, 72 h. The procedure: as §3
Data set [5] relates to human embryonic kidney cells (HEK293). As to the kind of experiment: Safety study in vitro (MTS viability), HEK293. The data set is classed as cell-based. To be noted: 0.205–50 μM, 72 h. The procedure:
as §3

Data set [6] deals with breast cancer cells (MCF-7). Description: MTS-based cytotoxicity assay, MCF-7. The format is cell-based, human. To be noted: Homo sapiens, MCF7, 72 h, 72 h treatment, 0.205–50 μM, mean ± SEM. The procedure:
as §1, §2

Data set [7] has as its system breast cancer cell line (MCF-7). Details: method as in doi:10.1016/j.tet.2006.12.076. Particulars: cancer cell line growth inhibition; cited from earlier work.
Data set [8] relates to colorectal adenoma cancer cell line (HT-29). Details: method as in doi:10.1016/j.tet.2006.12.076. To be noted: cancer cell line growth inhibition; cited from earlier work.
The subject of data set [9] is human lymphocyte cell line (CEM). Details: method as in PMID 30060562. To be noted: anticancer activity; cited from earlier work.
The subject of the next data set is Jurkat cell line. Details: method as in PMID 20813537. Particulars: antitumor effect; cited from earlier work.
For data set [10], the system named is HCT-116. Also on record: method as in PMID 37903949. To be noted: cytotoxic activity; cited from earlier work.
A further data set concerns HepG2. Details: method as in PMID 32510731. To be noted: antiproliferative activity; cited from earlier work.
Data set [11] deals with HCT-116. Details: method as in PMID 32510731. Particulars: antiproliferative activity; cited from earlier work.
Another data set deals with MCF-7. Details: method as in PMID 32510731. Particulars: antiproliferative activity; cited from earlier work.
The test system of data set [12] is PARP1 (poly(ADP-ribose)polymerase 1). Also on record: method as in PMID 37843892. To be noted: cited from earlier work.
In data set [13] the test system is PARP2 (poly(ADP-ribose)polymerase 2). Details: method as in PMID 37843892. Particulars: cited from earlier work.
Data set [14] concerns murine leukemia cell line (L1210). Particulars: cytotoxicity; cited from earlier work.
In data set [15] the test system is epidermoid carcinoma cell line (KB). Particulars: cytotoxicity; cited from earlier work.

Molecules are shown by their SMILES. Values after ≈ are worked out from the molar mass of the structure shown. “Also recorded” adds a separate entry of the source.

In general, IC50 refers to the concentration needed to halve the response being measured. `O=c1c2ccccc2n(C[C@@H]2C[C@@H](P(=O)(OCc3ccccc3)OCc3ccccc3)N(Cc3ccccc3)O2)c(=O)n1Cc1ccccc1F` (relative stereo) [trans-16b, Dibenzyl cis- and trans-5-((3-(2-fluorobenzyl)-3,4-dihydro-2,4-dioxoquinazolin-1(2H)-yl)methyl)-2-benzylisoxazolidin-3-yl-3-phosphonate]: the IC50 in data set [1] came out at 9.84 ± 3.69 µM; in data set [3], 34.6 ± 5.3 µM; in data set [6], 78.7 ± 2.35 µM. Moreover, the “Induction of apoptosis (caspase-3/7 positive cells)” value with PC-3 cell line is reported as “comparable to that induced with staurosporine; also recorded: highest induction of apoptosis; also recorded: strongly induced apoptosis”. In addition, the “Cell viability, HepG2” value in [2] was “did not affect cell viability”. In addition, in [4], the “Cell viability, HSF” value is listed as “no adverse effect was observed”. Further, in data set [5], the “Cell viability, HEK293” value was “did not affect cell viability”.
`O=c1[nH]cc(F)c(=O)[nH]1` [5-Fluorouracil]: in [7], the “GI, MCF-7” value is 31%. Besides, the “GI, HT-29” value in data set [8] is recorded as 34%. Also, in data set [9], the IC50 is 18 ± 5 µM.
For `Cc1cn(C2CC(c3ccccc3Cl)N(C)O2)c(=O)[nH]c1=O` (stereo not drawn) [Compound 5], the IC50 in the data set on Jurkat cell line was 8.8 ± 4.4 µM.
With `O=C(O)c1ccc(NC(=S)NC(=O)c2ccc(-n3c(=O)[nH]c4ccccc4c3=O)cc2)cc1` [Compound 13], the IC50 with HCT-116 [10] is 1.18 ± 0.06 µM.
As a reminder, the GI50 is the concentration giving 50% growth inhibition. Turning to `O=C(Cn1c(=O)c2ccccc2n(Cc2ccccc2)c1=O)Nc1ccc(C(=O)N/N=C/c2ccc(Cl)cc2)cc1` [Compound 14], the GI50 was 9.16 ± 0.8 µM in the data set with HepG2, 5.69 ± 0.4 µM in the data set on HCT-116 [11] and 5.27 ± 0.2 µM with MCF-7.
For the compound `O=C(c1cc(Cn2c(=O)[nH]c(=O)c3ccccc32)ccc1F)N1CCN(C2CCCC2)C(=O)C1` [Compound 15], in data set [12], the PARP1 inhibition entry was “inhibited”. Also, the PARP2 inhibition result in data set [13] is listed as “inhibited”.
As to `CO[C@@]12[C@H](COC(N)=O)C3=C(C(=O)C(C)=C(N)C3=O)N1C[C@@H]1N[C@@H]12` [Mitomycin C], in data set [8], the “GI, HT-29” value is 31%.
Turning to `COc1cc2nccc(Oc3ccc(NC(=O)C4(C(=O)Nc5ccc(F)cc5)CC4)cc3)c2cc1OC` [cabozantinib, reference compound], the IC50 in the data set on HCT-116 [10] was 16.4 ± 0.86 µM.
On to `C(=C/CCCCN1OC(CCCCCCCCc2cccnc2)C2CCCC21)/CCCCCCCCCc1cccnc1` (stereo not drawn) [pyrinodemin A], for which, in data set [14], the “IC50, L1210” value is given as 0.058 µg/mL (≈ 0.0987 µM). Besides, in data set [15], the “IC50, KB” value is on record as 0.5 µg/mL (≈ 0.85 µM).

The values above are taken from article PMC11243672, “New 3-(Dibenzyloxyphosphoryl)isoxazolidine Conjugates of N1-Benzylated Quinazoline-2,4-diones as Potential Cytotoxic Agents against Cancer Cell Lines” (Molecules, 2024).
